Values quoted from earlier work, collected in patent US5788978A, “Injectable pulsatile ivermectin composition” (priority 1996, dated 1998).

Key:
parasites = settings: in vivo

Substance: ivermectin
- minimum efficiency level in serum (parasites): 2 to 5 nanogrammes per milliliter of serum
- solubility in acqueous media: insoluble
